From US6843979B2, “4-haloethenylphenyl tropane:serotonin transporter imaging agents” (Emory University, priority 1999, dated 2005)
Where “and” joins values, the source holds several entries; their conditions need not be identical. Equal entries are not always repeated. Where two headings read alike, the source gives them in different places.

What was measured:
human SERT = target: T1, human SERT (Homo sapiens, UniProt P31645); assay: Binding site competition, cells stably transfected with human SERT, [3H]citalopram; settings: for Ki / SERT Ki: [3H]citalopram, transfected cell lines
T1 construct: expressed in transfected cells
T1 sequence (P31645 whole entry): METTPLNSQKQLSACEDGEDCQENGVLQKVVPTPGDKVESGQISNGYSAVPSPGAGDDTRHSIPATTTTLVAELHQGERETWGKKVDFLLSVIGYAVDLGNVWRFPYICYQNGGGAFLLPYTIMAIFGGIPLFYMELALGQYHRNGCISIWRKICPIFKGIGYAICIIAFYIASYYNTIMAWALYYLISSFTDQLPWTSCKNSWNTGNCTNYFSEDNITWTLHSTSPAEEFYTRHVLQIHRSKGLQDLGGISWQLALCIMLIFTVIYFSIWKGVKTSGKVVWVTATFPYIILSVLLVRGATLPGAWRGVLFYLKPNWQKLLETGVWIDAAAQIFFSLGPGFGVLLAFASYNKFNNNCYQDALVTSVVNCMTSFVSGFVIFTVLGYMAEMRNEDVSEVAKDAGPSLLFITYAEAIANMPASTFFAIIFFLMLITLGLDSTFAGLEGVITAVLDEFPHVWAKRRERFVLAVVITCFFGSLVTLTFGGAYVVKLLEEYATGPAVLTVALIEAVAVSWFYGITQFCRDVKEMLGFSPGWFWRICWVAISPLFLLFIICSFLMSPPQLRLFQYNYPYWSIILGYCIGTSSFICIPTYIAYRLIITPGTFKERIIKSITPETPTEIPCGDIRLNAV

human DAT = target: T2, human DAT (Homo sapiens, UniProt Q01959); assay: Binding site competition, cells stably transfected with human DAT, [3H]WIN 35,428; settings: [3H]WIN 35428, transfected cell lines
T2 construct: expressed in transfected cells
T2 sequence (Q01959 whole entry): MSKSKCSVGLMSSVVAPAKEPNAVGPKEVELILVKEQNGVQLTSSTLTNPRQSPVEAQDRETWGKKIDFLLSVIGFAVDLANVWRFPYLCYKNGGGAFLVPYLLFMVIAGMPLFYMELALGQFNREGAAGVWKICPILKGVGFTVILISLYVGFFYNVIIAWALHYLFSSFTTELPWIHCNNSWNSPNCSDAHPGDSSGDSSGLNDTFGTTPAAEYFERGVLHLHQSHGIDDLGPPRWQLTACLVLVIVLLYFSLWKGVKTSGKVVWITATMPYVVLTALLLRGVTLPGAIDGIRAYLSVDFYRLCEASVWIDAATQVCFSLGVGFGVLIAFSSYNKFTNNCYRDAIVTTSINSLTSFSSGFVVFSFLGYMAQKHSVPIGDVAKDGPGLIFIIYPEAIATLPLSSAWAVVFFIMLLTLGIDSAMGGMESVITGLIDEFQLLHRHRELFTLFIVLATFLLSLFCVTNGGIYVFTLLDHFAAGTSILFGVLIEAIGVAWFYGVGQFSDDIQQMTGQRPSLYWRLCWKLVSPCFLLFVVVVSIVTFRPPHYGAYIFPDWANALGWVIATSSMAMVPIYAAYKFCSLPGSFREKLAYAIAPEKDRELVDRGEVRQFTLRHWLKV

human NET = target: T3, human NET (Homo sapiens, UniProt P23975); assay: Binding site competition, cells stably transfected with human NET, [3H]nisoxetine; settings: transfected cell lines
T3 construct: expressed in transfected cells
T3 sequence (P23975 whole entry): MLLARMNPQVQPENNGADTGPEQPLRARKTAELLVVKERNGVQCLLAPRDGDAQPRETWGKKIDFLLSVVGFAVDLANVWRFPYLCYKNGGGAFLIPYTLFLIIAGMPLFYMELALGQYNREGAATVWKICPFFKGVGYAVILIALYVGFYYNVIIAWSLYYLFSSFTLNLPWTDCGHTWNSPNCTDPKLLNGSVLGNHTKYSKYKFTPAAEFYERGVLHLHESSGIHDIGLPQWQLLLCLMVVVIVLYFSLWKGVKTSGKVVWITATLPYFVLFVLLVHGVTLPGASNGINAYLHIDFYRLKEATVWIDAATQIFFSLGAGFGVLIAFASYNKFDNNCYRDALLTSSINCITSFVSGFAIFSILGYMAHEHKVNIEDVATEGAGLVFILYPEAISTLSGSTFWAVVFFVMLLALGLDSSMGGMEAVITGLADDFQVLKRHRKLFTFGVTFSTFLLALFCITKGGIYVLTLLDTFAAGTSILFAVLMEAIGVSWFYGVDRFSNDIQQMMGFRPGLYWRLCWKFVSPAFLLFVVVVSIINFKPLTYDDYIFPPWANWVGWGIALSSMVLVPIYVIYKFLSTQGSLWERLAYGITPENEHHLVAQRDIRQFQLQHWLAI

SERT = settings: cited from earlier work; for IC50: vs [3H]paroxetine
[1] = target: dopamine transporter (DAT) (Rattus norvegicus, UniProt P23977); settings: vs [3H]WIN 35428; cited from earlier work
dopamine transporter (DAT), sequence (P23977 whole entry): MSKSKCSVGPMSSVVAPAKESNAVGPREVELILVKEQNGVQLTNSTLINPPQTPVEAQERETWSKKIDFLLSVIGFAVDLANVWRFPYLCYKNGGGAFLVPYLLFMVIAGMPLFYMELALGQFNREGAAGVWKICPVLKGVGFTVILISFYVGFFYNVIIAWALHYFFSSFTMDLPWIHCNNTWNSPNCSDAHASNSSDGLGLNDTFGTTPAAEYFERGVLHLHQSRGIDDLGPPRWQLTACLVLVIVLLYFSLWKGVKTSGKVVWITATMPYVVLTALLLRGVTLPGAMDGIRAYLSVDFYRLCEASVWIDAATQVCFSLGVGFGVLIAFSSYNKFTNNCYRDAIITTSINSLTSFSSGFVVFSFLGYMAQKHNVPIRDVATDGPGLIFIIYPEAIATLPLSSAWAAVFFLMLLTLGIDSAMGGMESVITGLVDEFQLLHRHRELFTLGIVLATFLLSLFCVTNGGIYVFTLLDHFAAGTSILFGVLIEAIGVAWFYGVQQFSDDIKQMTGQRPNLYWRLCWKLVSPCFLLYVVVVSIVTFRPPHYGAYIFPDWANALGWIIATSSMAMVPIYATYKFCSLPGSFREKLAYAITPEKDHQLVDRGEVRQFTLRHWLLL

SMILES	Ki (human SERT)	DAT/SERT selectivity (human SERT; ratio of Ki)	Ki (human DAT)	SERT Ki (human SERT)	further results
COC(=O)C1C2CCC(CC1c1ccc(/C=C\CF)cc1)N2 (stereo not drawn) [Ligand Z-3-FPNT, 2β-carbomethoxy-3β-(4′(Z-3-fluoropropenyl)phenyl)-nortropane]	0.1 nM	116	11.6 nM	–	–
COC(=O)[C@H]1[C@@H](c2ccc(C(C)=CF)cc2)C[C@@H]2CC[C@H]1N2 [IPPNT]	0.08 nM	37	2.93 nM	subnanomolar	Ki (human NET; read-out: NET Ki): 11.8 nM
COC(=O)C1C2CCC(CC1c1ccc(CCCF)c(I)c1)N2 (stereo not drawn) [FPINT]	–	–	–	subnanomolar	–
COC(=O)C1C2CCC(CC1c1ccc(I)cc1)N2 (stereo not drawn) [Nor-CIT, 2β-carbomethoxy-3β-(4-iodophenyl)nortropane, reference compound]	0.12 nM	–	–	–	–
CC=Cc1ccc(C2CC3CCC(N3)C2C(=O)OC)cc1 (stereo not drawn) [Nor-β-CCPPT, 2β-carbomethoxy-3β-(4′cis-propenylphenyl)notropane]	–	–	–	–	Selectivity for the SERT over the DAT (SERT): 28 times; IC50 (SERT): 1.15 nM; IC50 [1]: 32 nM
C=C(C)c1ccc(C2CC3CCC(N3)C2C(=O)OC)cc1 (stereo not drawn) [Nor-β-CIPPT, 2β-carbomethoxy-3β-(4′-isopropenylphenyl)nortropane]	–	–	–	–	Selectivity for the SERT over the DAT (SERT): 38 times; IC50 (SERT): 0.6 nM
COC(=O)C1C2CCC(CC1c1ccc(CCF)c(I)c1)N2 (stereo not drawn) [FEINT, 2β-carbomethoxy-3β-(4-(2-fluoroethyl)-3-iodophenyl)nortropane]	0.1 nM and 0.12 to 0.56 nM	424 and 283	42.4 nM and 42 nM	subnanomolar	Ki (human NET; NET Ki): 64.9 nM and 65 nM; NET/SERT selectivity (human SERT; ratio of Ki, NET): 649
